For data set [1], the target named is T1, Tyrosine-protein phosphatase non-receptor type 1 (Homo sapiens, UniProt P18031).
T1 sequence (P18031 whole entry): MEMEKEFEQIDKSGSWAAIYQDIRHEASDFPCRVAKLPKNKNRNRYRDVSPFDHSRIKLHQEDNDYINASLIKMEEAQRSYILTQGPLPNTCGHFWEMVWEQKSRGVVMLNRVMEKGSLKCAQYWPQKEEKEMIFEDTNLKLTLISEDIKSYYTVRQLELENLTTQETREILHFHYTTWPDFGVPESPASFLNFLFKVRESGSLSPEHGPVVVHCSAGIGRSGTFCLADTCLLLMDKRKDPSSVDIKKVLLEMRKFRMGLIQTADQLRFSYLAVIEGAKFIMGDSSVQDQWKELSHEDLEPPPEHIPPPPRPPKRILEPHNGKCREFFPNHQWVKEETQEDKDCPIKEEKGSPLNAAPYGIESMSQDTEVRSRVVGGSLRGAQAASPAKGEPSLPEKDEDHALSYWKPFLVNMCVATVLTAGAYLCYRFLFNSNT
Nature of the data set: Inhibition of recombinant PTP1B (unknown origin) using pNPP substrate.

A further data set relates to MCF7. Nature of the data set: Anticancer activity against human MCF7 cells incubated for 24 hrs by MTT assay. In kind it is functional, cell-based. The following applies: MCF7, 24 h. (In general: Tetrazolium dyes change colour on reduction, which living cells bring about.)
The test system of a further data set is K562. Nature of the data set: Anticancer activity against human K562 cells incubated for 24 hrs by MTT assay. In kind it is functional, cell-based. The following applies: K562, 24 h.
The subject of another data set is HepG2. Nature of the data set: Anticancer activity against human HepG2 cells incubated for 24 hrs by MTT assay. The following applies: HepG2, 24 h. In kind it is functional, cell-based.
The test system of another data set is MDA-MB-231. Nature of the data set: Anticancer activity against human MDA-MB-231 cells incubated for 24 hrs by MTT assay. Type of data set: functional, cell-based. The following applies: MDA-MB-231, 24 h.
A further data set concerns HeLa. Nature of the data set: Anticancer activity against human HeLa cells incubated for 24 hrs by MTT assay. Type of data set: functional, cell-based.
A further data set concerns HEK293. Description: Cytotoxicity activity against human HEK293 cells incubated for 24 hrs by MTT assay. The following applies: HEK293, 24 h. Type of data set: cell-based.
The nature of data set [2]: Stability in various solvents up to 96 hrs at different temperatures. Type of data set: physicochemical.

As to `COC(=O)c1scc(-c2ccc(NC(=O)c3ccc(C(F)(F)F)nc3)cc2)c1OC`, the 50% inhibitory concentration (IC50) (as a rule, the concentration that gives 50% inhibition) in data set [1] turned out to be 7.29 µM; in the data set with MCF7, 1.47 µM; with K562 it was 12.5 µM; in the data set on HepG2, 23.3 µM; in the data set with MDA-MB-231 it was 7.25 µM; in the data set with HeLa it was 23.5 µM.

Turning to `COC(=O)c1scc(-c2ccc(NC(=O)c3ccc(C#N)nc3)cc2)c1OC`, the IC50 worked out at 12.5 µM in data set [1], 9.54 µM with MCF7, 22.5 µM in the data set on HepG2 and 28.5 µM in the data set with MDA-MB-231.

For the compound `COC(=O)c1scc(-c2ccc(NC(=O)c3ccc(F)c(Cl)n3)cc2)c1OC`, the 50% inhibitory concentration (IC50) in data set [1] is 12.3 µM; with MCF7, 10.3 µM; with K562, 8.25 µM; in the data set on HepG2 it was 10.3 µM; with MDA-MB-231, 10.3 µM; in the data set with HeLa, 16.2 µM.

For the compound `COC(=O)c1scc(-c2ccc(NC(=O)c3cccc(I)c3)cc2)c1OC`, the IC50 in data set [1] turned out to be 14.5 µM; with MCF7 it was 12.2 µM; in the data set with K562, 14.7 µM; in the data set on HepG2 it was 16.5 µM; in the data set on MDA-MB-231, 8.24 µM; in the data set with HeLa, 12.7 µM. In the data set with HEK293, the IC50 was 42.7 µM.

Consider `COC(=O)c1scc(-c2ccc(NC(=O)c3cc(I)ccc3F)cc2)c1OC`, for which the IC50 in data set [1] was determined as 20.6 µM; with MCF7, 22.5 µM; in the data set on K562, 35.6 µM; in the data set with MDA-MB-231 it was 16.5 µM; in the data set with HEK293, 45.2 µM.

On to `COC(=O)c1scc(-c2ccc(NC(=O)c3ccc4ccccc4c3)cc2)c1OC`, for which the IC50 in data set [1] is 5.25 µM; with MCF7 it was 0.09 µM; in the data set with K562, 10.2 µM; with HepG2 it was 19.5 µM; in the data set on MDA-MB-231 it was 5.25 µM; in the data set with HeLa it was 18.2 µM. The Stability entry in data set [2] is recorded as “Stable”.

As for `COC(=O)c1scc(-c2ccc(NC(=O)c3cccs3)cc2)c1OC`, the IC50 is 24.3 µM in data set [1]; 18.6 µM in the data set on MCF7; 15.3 µM in the data set with HepG2; over 50 µM with MDA-MB-231; over 50 µM with HeLa; over 50 µM with HEK293.

Regarding `COC(=O)c1scc(-c2ccc(NC(=O)c3ccc(OC)nc3)cc2)c1OC`, the IC50 in data set [1] is 22.3 µM; with MCF7, 5.25 µM; in the data set on K562, 18.2 µM; with HepG2 it was over 50 µM; in the data set with MDA-MB-231, 15.3 µM; with HeLa, 24.4 µM. Besides, the IC50 in the data set with HEK293 was over 50 µM.

For the compound `COC(=O)c1scc(-c2ccc(NC(=O)c3ccc(C(F)(F)F)cc3Br)cc2)c1OC`, the IC50 in data set [1] was 16.5 µM; in the data set on MCF7, 22.4 µM; in the data set with K562 it was 9.25 µM; in the data set on HepG2, 28.2 µM; in the data set on MDA-MB-231 it was 19.6 µM; in the data set with HeLa, 16.2 µM. In the data set with HEK293, this compound came in with a half-maximal inhibitory concentration (IC50) of over 50 µM.

With `COC(=O)c1scc(-c2ccc(NC(=O)c3cccc(C(F)(F)F)c3)cc2)c1OC`, the IC50 came out at 12.3 µM in data set [1]; 26.2 µM with MCF7; 6.13 µM in the data set on K562; 32.5 µM in the data set on HepG2; 24.6 µM in the data set with MDA-MB-231; 19.3 µM in the data set on HeLa.

In the case of `COC(=O)c1scc(-c2ccc(NC(=O)c3ccc(C(F)(F)F)cc3)cc2)c1OC`, the half-maximal inhibitory concentration (IC50) in data set [1] was determined as 14.8 µM; with MCF7 it was 24.6 µM; in the data set on K562, 9.26 µM; in the data set with HepG2 it was 24.6 µM; with MDA-MB-231, 18.3 µM; with HeLa, 14.4 µM. The same compound returned an IC50 in the data set on HEK293 of 48.3 µM.

For the compound `COC(=O)c1scc(-c2ccc(NC(=O)c3ccccn3)cc2)c1OC`, the IC50 in data set [1] was 11.3 µM; with MCF7, 19.2 µM; in the data set on K562, 24.2 µM; in the data set with HepG2, 10.3 µM; with MDA-MB-231, 8.25 µM; with HeLa, over 50 µM.

For the compound `COC(=O)c1scc(-c2ccc(NC(=O)c3ncc(Cl)cc3Br)cc2)c1OC`, the concentration for half-maximal inhibition (IC50) in data set [1] was 11.2 µM; with MCF7, 5.46 µM; in the data set on K562, 12.6 µM; with HepG2 it was 9.53 µM; in the data set on MDA-MB-231 it was 8.36 µM; in the data set with HeLa, 18.3 µM. Moreover, the IC50 with HEK293 was over 50 µM.

With `COC(=O)c1scc(-c2ccc(NC(=O)c3cccc(OC(F)(F)F)c3)cc2)c1OC`, the half-inhibitory concentration (IC50) in data set [1] was found to be 6.37 µM; with MCF7, 2.22 µM; in the data set on K562, 18.2 µM; in the data set with HepG2, 0.72 µM; in the data set on MDA-MB-231, 7.54 µM; in the data set with HeLa, 16.6 µM.

Consider `COC(=O)c1scc(-c2ccc(NC(=O)Cc3c(Cl)cccc3Cl)cc2)c1OC`, for which the 50% inhibitory concentration (IC50) in data set [1] came out at 16.3 µM; in the data set with MCF7 it was 12.2 µM; in the data set on K562, 9.56 µM; in the data set on HepG2, 13.5 µM; in the data set on MDA-MB-231, 14.2 µM.

Take `COc1cccc2c1C(=O)c1c(O)c3c(c(O)c1C2=O)C[C@@](O)(C(=O)CO)C[C@@H]3O[C@H]1C[C@H](N)[C@H](O)[C@H](C)O1` [DOXORUBICIN]: the concentration for half-maximal inhibition (IC50) with MCF7 is 0.41 µM; in the data set with K562, 0.07 µM; in the data set with MDA-MB-231 it was 0.6 µM; in the data set on HeLa it was 0.37 µM.
